Two molecules from patent US9254283B2, “Therapeutic agent for migraine” (priority 2008, dated 2016) can be followed below.

This test has as its system cerebral vascular smooth muscle (basilar arteries). The test can be described thus: Cerebral vasoconstriction effect: inhibition of adenosine-induced relaxation of isolated basilar artery rings. The following applies: dog basilar artery rings. The protocol: Dogs were anesthetized by intravenous administration of sodium pentobarbital, exsanguinated by decapitation and subjected to craniotomy. The basilar arteries were removed, and ring specimens of cerebral vascular smooth muscle measuring about 2 mm in width were prepared. Each ring specimen was fixed to an injection needle (cut into a 2-mm piece) with a silk thread. The injection needle was fixed to a holder installed in an Easy Magnus Device (Model: UC-2; Kishimoto Medical Instruments), and the specimen was allowed to stabilize for 60 minutes or more under a resting tension of 0.2 g (1.96 mN) in a 37° C. nutritive solution. […] Separately, in the same manner as in the test compound-administered group, dimethylsulfoxide alone was cumulatively added in place of the test compound (solvent-added group). The contraction of the cerebral vascular smooth muscle was then recorded on a recorder (Yokogawa Electric Corporation) from a transducer (Nihon Kohden Corporation) connected to the holder, to which the specimen was fixed, via a strain pressure amplifier (Nihon Kohden Corporation) (n=6). […] The cerebral vasoconstriction effect was determined as the percentage inhibition (%) of the adenosine-induced cerebral vascular smooth muscle relaxation, and comparison was made between the test compound-added group and the solvent-added group.

For `Cc1ccc(C(=O)Nc2nc(-c3ccco3)c(C(=O)C3CCOCC3)s2)cn1` [(IIC)], for the setting “Canis lupus familiaris, 10 nmol/L, n=6, solvent-added group 0.6±7.6%, read-out: percentage inhibition of the adenosine-induced cerebral vascular smooth muscle relaxation”, the inhibition (commonly the change of the read-out against control, counted positive when it falls) at 0.01 µM is 97.4 ± 1.8%.
Turning to `CC(C)(O)CCN1CCN(c2cc3nc(-c4ccco4)nn3c(N)n2)CC1` [Compound (IB)], the “suppressing effect on adenosine-induced cerebral vascular smooth muscle relaxation (in words)” value (versus solvent-added group) is “confirmed”.
